Laboratory results: US20100256104A1, “NOVEL AMIDE COMPOUNDS” (ASTRAZENECA R&D, priority 2009, published 2010)

Molecular target: T1, recombinant human GR (Homo sapiens, UniProt P04150)
T1 construct: purchased Panvera/Invitrogen P2812 (kit P2893)
T1 sequence (P04150 1-777): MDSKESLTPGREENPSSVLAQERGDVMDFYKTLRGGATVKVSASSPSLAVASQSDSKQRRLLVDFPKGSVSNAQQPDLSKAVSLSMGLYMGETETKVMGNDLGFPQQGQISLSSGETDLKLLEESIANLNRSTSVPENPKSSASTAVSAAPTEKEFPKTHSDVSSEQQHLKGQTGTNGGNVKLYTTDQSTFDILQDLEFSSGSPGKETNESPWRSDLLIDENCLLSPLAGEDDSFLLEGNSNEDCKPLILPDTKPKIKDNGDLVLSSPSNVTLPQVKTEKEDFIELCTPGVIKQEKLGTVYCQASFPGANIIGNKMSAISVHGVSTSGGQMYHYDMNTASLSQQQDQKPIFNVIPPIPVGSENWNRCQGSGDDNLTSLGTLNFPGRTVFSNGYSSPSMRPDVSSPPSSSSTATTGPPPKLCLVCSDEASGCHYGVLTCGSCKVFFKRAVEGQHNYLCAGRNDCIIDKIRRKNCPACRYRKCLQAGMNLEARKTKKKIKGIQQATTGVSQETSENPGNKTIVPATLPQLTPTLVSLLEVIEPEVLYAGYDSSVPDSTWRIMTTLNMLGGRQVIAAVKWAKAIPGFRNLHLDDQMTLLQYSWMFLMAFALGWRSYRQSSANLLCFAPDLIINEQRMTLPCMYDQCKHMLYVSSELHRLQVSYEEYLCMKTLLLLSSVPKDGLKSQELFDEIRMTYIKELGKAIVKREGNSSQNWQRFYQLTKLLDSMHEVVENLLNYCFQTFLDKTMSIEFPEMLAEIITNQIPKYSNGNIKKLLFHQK
Assay: Human Glucocorticoid Receptor (GR) Assay, fluorescence polarization competition with GS Red tracer
Conditions: 2 hours at room temperature, 100% control 10 μM Dexamethasone, XLfit model 205, read-out: Inhibition of GR binding, IC50
Method: Human Glucocorticoid Receptor (GR) Assay The assay is based on a commercial kit from Panvera/Invitrogen (Part number P2893). The assay technology is fluorescence polarization. The kit utilises recombinant human GR (Panvera, Part number P2812), a Fluoromone™ labelled tracer (GS Red, Panvera, Part number P2894) and a Stabilizing Peptide 10X (Panvera, Part number P2815). The GR and Stabilizing Peptide reagents are stored at −70° C. while the GS Red is stored at −20° C. Also included in the kit are 1M DTT (Panvera, Part number P2325, stored at −20° C.) and GR Screening buffer 10X (Panvera, Part number P2814, stored at −70° C. initially but once thawed stored at room temperature). Avoid repeated freeze/thaws for all reagents. The GR Screening buffer 10X comprises 100 mM potassium phosphate, 200 mM sodium molybdate, 1 mM EDTA and 20% DMSO. Test compounds (1 μL) and controls (1 μL) in 100% DMSO were added to black polystyrene 384-well plates (Greiner low volume black flat-bottom, part number 784076). 0% control was 100% DMSO and 100% control was 10 μM Dexamethasone. Background solution (8 μL; assay buffer 10X, Stabilizing Peptide, DTT and ice cold MQ water) was added to the background wells. GS Red solution (7 μL; assay buffer 10X, Stabilizing Peptide, DTT, GS Red and ice cold water) was added to all wells except background wells. GR solution (7 μL; assay buffer 10X, Stabilizing Peptide, DTT, GR and ice cold water) was added to all wells. The plate was sealed and incubated in a dark at room temperature for 2 hours. The plate was read in an Analyst plate reader (LJL Biosystems/Molecular Devices Corporation) or other similar plate reader capable of recording fluorescence polarization (excitation wavelength 530 nm, emission wavelength 590 nm and a dichroic mirror at 561 nm).

| IC50 | Structure (SMILES) |
| --- | --- |
| 7.5 nM | COCC(=O)O[C@]1(C(=O)SCF)[C@H](C)C[C@H]2[C@@H]3CCC4=Cc5c(cnn5-c5cccc(C(=O)N6CCC[C@@H]6C(N)=O)c5)C[C@]4(C)[C@@]3(F)[C@@H](O)C[C@@]21C [Example 47, (1R,2R,3aS,3bS, 10aS,10bR,11S,12aS)-7-(3-{[(2R)-2-carbamoyl-pyrrolidin-1-yl]carbonyl}phenyl)-10b-fluoro-1-{[(fluoromethyl)sulfanyl]carbonyl}-11-hydroxy-2,10a,12a-trimethyl-1,2,3,3a,3b,4,5,7,10, 10a,10b,11,12,12a-tetradecahydrocyclo-penta[5,6]naphtho [1,2-f]indazol-1-yl methoxyacetate] |
| 3 nM | COCC(=O)O[C@]1(C(=O)SCF)CC[C@H]2[C@@H]3CCC4=Cc5c(cnn5-c5cccc(C(=O)NCC(N)=O)c5)C[C@]4(C)[C@@]3(F)[C@@H](O)C[C@@]21C [Example 17, (1R,3aS,3bS,10aS,10bR,11S, 12aS)-7-{3-[(2-amino-2-oxoethyl)carbamoyl]-phenyl}-10b-fluoro-1-{[(fluoromethyl)sulfanyl]carbonyl}-11-hydroxy-10a,12a-dimethyl-1,2,3,3a,3b,4,5,7,10,10a,10b, 11,12,12a-tetradecahydro-cyclopenta[5,6]naphtho[1,2-f] indazol-1-yl methoxyacetate] |
| 1.5 nM | COCC(=O)O[C@]1(C(=O)SCC#N)CC[C@H]2[C@@H]3CCC4=Cc5c(cnn5-c5cccc(C(=O)NCc6cccnc6)c5)C[C@]4(C)[C@H]3[C@@H](O)C[C@@]21C [Example 52, (1R,3aS,3bS,10aR, 10bS,11S,12aS)-1-{[(cyanomethyl)sulfanyl]carbonyl}-11-hydroxy-10a,12a-dimethyl-7-{3-[(pyridin-3-ylmethyl)carbamoyl]phenyl}-1,2,3,3a,3b,4,5,7,10, 10a,10b,11,12,12a-tetradecahydrocyclo-penta[5,6]naphtho [1,2-f]indazol-1-yl methoxyacetate] |
| 0.91 nM | COCCNC(=O)c1cccc(-n2ncc3c2C=C2CC[C@@H]4[C@H]([C@@H](O)C[C@@]5(C)[C@H]4CC[C@]5(OC(=O)C4CC4)C(=O)SCC#N)[C@@]2(C)C3)c1 [Example 4, (1R,3aS,3bS,10aR,10bS,11S,12aS)-1-{[(Cyanomethyl)sulfanyl]carbonyl}-11-hydroxy-7-{3-[(2-methoxyethyl)carbamoyl]phenyl}-10a,12a-dimethyl-1,2,3,3a,3b,4,5,7,10,10a,10b,11,12,12a-tetradecahydrocyclopenta[5,6]naphtho[1,2-f]indazol-1-yl cyclopropanecarboxylate] |
| 3.3 nM | CCC(=O)O[C@]1(C(=O)SCC#N)CC[C@H]2[C@@H]3CCC4=Cc5c(cnn5-c5cccc(C(=O)N6CCC[C@@H]6C(N)=O)c5)C[C@]4(C)[C@@]3(F)[C@@H](O)C[C@@]21C [Example 60, (1R,3aS,3bS,10aS, 10bR,11S,12aS)-7-(3-{[(2R)-2-carbamoyl-pyrrolidin-1-yl]carbonyl}phenyl)-1-{[(cyanomethyl)sulfanyl]carbonyl}-10b-fluoro-11-hydroxy-10a,12a-dimethyl-1,2,3,3a, 3b,4,5,7,10,- 10a,10b,11,12,12a-tetradecahydro-cyclopenta[5,6]naphtho [1,2-f]indazol-1-yl propanoate] |
| 6 nM | CCC(=O)O[C@]1(C(=O)SCC#N)CC[C@H]2[C@@H]3CCC4=Cc5c(cnn5-c5cccc(C(=O)N6CCC[C@@H]6C(N)=O)c5)C[C@]4(C)[C@H]3[C@@H](O)C[C@@]21C [Example 14, (1R,3aS,3bS,10aR,10bS,11S,12aS)-7-(3-{[(2R)-2-Carbamoylpyrrolidin-1-yl]carbonyl}phenyl)-1-{[(cyanomethyl)sulfanyl]carbonyl}-11-hydroxy-10a,12a-dimethyl-1,2,3,3a,3b,4,5,7,10,10a,10b,11,12,12a-tetradecahydrocyclopenta[5,6]naphtho[1,2-f]indazol-1-yl propanoate] |
| 6.3 nM | CCC(=O)O[C@]1(C(=O)SCCO)CC[C@H]2[C@@H]3CCC4=Cc5c(cnn5-c5cccc(C(=O)N6CCC[C@@H]6C(N)=O)c5)C[C@]4(C)[C@H]3[C@@H](O)C[C@@]21C [Example 48, (1R,3aS,3bS,10aR, 10bS,11S,12aS)-7-(3-{[(2R)-2-carbamoyl-pyrrolidin-1-yl]carbonyl}phenyl)-11-hydroxy-1-{[(2-hydroxyethyl)sulfanyl]carbonyl}-10a,12a-dimethyl-1,2,3,3a,3b,4,5,7,10, 10a,10b,11,12,12a-tetradecahydrocyclo-penta[5,6]naphtho [1,2-f]indazol-1-yl propanoate] |
| 3.3 nM | COCC(=O)O[C@]1(C(=O)SCF)[C@H](C)C[C@H]2[C@@H]3CCC4=Cc5c(cnn5-c5cccc(C(=O)NCc6cccnc6)c5)C[C@]4(C)[C@@]3(F)[C@@H](O)C[C@@]21C [Example 46, (1R,2R,3aS,3bS, 10aS,10bR,11S,12aS)-10b-fluoro-1-{[(fluoromethyl)sulfanyl]carbonyl}-11-hydroxy-2,10a,12a-trimethyl-7-{3-[(pyridin-3-ylmethyl)carbamoyl]phenyl}-1,2,3,3a,3b,4,5,7,10, 10a,10b,11,12,12a-tetradecahydrocyclo-penta[5,6]naphtho [1,2-f]indazol-1-yl methoxyacetate] |
| 2.5 nM | CSC(=O)[C@@]1(OC(=O)C2CC2)CC[C@H]2[C@@H]3CCC4=Cc5c(cnn5-c5cccc(C(=O)N6CCC[C@@H]6C(N)=O)c5)C[C@]4(C)[C@@]3(F)[C@@H](O)C[C@@]21C [Example 53, (1R,3aS,3bS,10aS,10bR,11S,12aS)-7-(3-{[(2R)-2-carbamoylpyrrolidin-1-yl]carbonyl}phenyl)-10b-fluoro-11-hydroxy-10a,12a-dimethyl-1-[(methylsulfanyl)carbonyl]-1,2,3,3a,3b,4,5,7,10,10a,10b,11,12,12a-tetradecahydrocyclopenta[5,6]naphtho[1,2-f]indazol-1-yl cyclopropanecarboxylate] |
| 0.98 nM | COCCNC(=O)c1cccc(-n2ncc3c2C=C2CC[C@@H]4[C@H]([C@@H](O)C[C@@]5(C)[C@H]4CC[C@]5(OC(=O)C4CC4)C(=O)SCF)[C@@]2(C)C3)c1 [Example 5, (1R,3aS,3bS,10aR,10bS,11S,12aS)-1-{[(Fluoromethyl)sulfanyl]carbonyl}-11-hydroxy-7-{3-[(2-methoxyethyl)carbamoyl]phenyl}-10a,12a-dimethyl-1,2,3,3a,3b,4,5,7,10,10a,10b,11,12,12a-tetradecahydrocyclopenta[5,6]naphtho[1,2-f]indazol-1-yl cyclopropanecarboxylate] |
| 3.6 nM | CCC(=O)O[C@]1(C(=O)SCF)CC[C@H]2[C@@H]3CCC4=Cc5c(cnn5-c5cccc(C(=O)N6CCC[C@@H]6C(N)=O)c5)C[C@]4(C)[C@@]3(F)[C@@H](O)C[C@@]21C [Example 61, (1R,3aS,3bS,10aS, 10bR,11S,12aS)-7-(3-{[(2R)-2-carbamoyl-pyrrolidin-1-yl]carbonyl}phenyl)-10b-fluoro-1-{[(fluoromethyl)sulfanyl]carbonyl}-11-hydroxy-10a,12a-dimethyl-1,2,3,3a,3b,4,5,7,10, 10a,10b,11,12,12a-tetradecahydrocyclo-penta[5,6]naphtho [1,2-f]indazol-1-yl propanoate] |
| 3 nM | COCC(=O)O[C@]1(C(=O)SCF)CC[C@H]2[C@@H]3CCC4=Cc5c(cnn5-c5cccc(C(=O)N[C@@H]6CCOC6)c5)C[C@]4(C)[C@H]3[C@@H](O)C[C@@]21C [Example 40, (1R,3aS,3bS,10aR, 10bS,11S,12aS)-1-{[(fluoromethyl)sulfanyl]carbonyl}-11-hydroxy-10a,12a-dimethyl-7-{3-[(3R)-tetrahydrofuran-3-ylcarbamoyl]phenyl}-1,2,3,3a,3b,4,5,7,10, 10a,10b,11,12,12a-tetradecahydrocyclo-penta[5,6]naphtho [1,2-f]indazol-1-yl methoxyacetate] |
